According to patent US6528522B2, “Substituted imidazoles as dual histamine H1 and H3 agonists or antagonists” (Schering Corporation, priority 2000, dated 2003):

How the values were obtained:
[1] = molecular target: T1, H3 receptors (Cavia porcellus, UniProt Q9JI35); experiment: H3-Receptor Binding Assay (guinea pig brain membranes, [3H]R-α-methyl histamine or [3H]Nα-methyl histamine); details: HCl salt of the indicated compound, read-out: H3 Ave Ki
T1 construct: The source of the H3 receptors in this experiment was guinea pig brain; from tissue; host or cells: guinea pig brain membranes
Description: General Procedure for H3—Receptor Binding Assay
The source of the H3 receptors in this experiment was guinea pig brain. The animals weighed 400-600 g. The brain tissue was homogenized with a solution of 50 mM Tris, pH 7.5. The final concentration of tissue in the homogenization buffer was 10% w/v. The homogenates were centrifuged at 1,000×g for 10 min. in order to remove clumps of tissue and debris. The resulting supernatants were then centrifuged at 50,000×g for 20 min. in order to sediment the membranes, which were next washed three times in homogenization buffer (50,000×g for 20 min. each). The membranes were frozen and stored at −70° C. until needed.
All compounds to be tested were dissolved in DMSO and then diluted into the binding buffer (50 mM Tris, pH 7.5) such that the final concentration was 2 μg/ml with 0.1% DMSO. Membranes were then added (400 μg of protein) to the reaction tubes. The reaction was started by the addition of 3 nM [^3H]R-α-methyl histamine (8.8 Ci/mmol) or 3 nM [^3H]N^α-methyl histamine (80 Ci/mmol) and continued under incubation at 30° C. for 30 min. Bound ligand was separated from unbound ligand by filtration, and the amount of radioactive ligand bound to the membranes was quantitated by liquid scintillation spectrometry. All incubations were performed in duplicate and the standard error was always less than 10%. Compounds that inhibited more than 70% of the specific binding of radioactive ligand to the receptor were serially diluted to determine a Ki (nM). The results are given in the Table 1 for the HCl salt of the indicated compound.

[2] = molecular target: T2, histamine H1 receptor (Rattus norvegicus, UniProt P31390); experiment: H1-Receptor Binding Assay (rat brain membranes, [3H]pyrilamine); details: male Sprague-Dawley rat brain membranes, Ki by Cheng-Prusoff, HCl salt of the indicated compound, read-out: H1 Ave Ki
T2 construct: The tissue source was male Sprague-Dawley rat brain; tissue Rockland Corporation, Gilbertsville, Pa; host or cells: male Sprague-Dawley rat brain membranes
Text: General Procedure for H1.—Receptor Binding Assay: The procedure used was based on that disclosed in V. T. Tran et al, “Histamine H1 receptors identified in mammalian brain membranes with [H-3]mepyramine”, Proc. Natl. Acad. Sci. U.S.A. 75 (1978) 6290-6294.
I. Tissue preparation protocol for histamine H1 receptor binding assay:
1. The tissue source was male Sprague-Dawley rat brain. These were purchased stripped and frozen (available from Rockland Corporation, Gilbertsville, Pa.). The buffer used was ice-cold 50 mM Tris-HCl, pH 7.5. (The pH was determined at 25° C.)
2. The brains were spread out on plastic wrap on the benchtop and allowed to thaw for 10-15 min. After this, everything was kept ice-cold.
3. Two brains were put in each 50 ml round bottom centrifuge tube and 25 ml of buffer was added. Then they were broken up with a Polytron (from Brinkmann Instruments, Westbury, N.Y.) equipped with a PT-10 tip at setting 6 for 30 sec.
4. The volume in the tube was brought up to 45 ml and mixed and the particulate material was centrifuged at 1000×g (3000 rpm, SS-34 rotor) for 10 min to remove nuclei and unbroken cells.
5. Pellets were discarded and the supernatants were centrifuged 10 min at 50,000×g (20,000 rpm, SS-34 rotor).
6. The high-speed pellets were resuspended in a volume of Tris buffer equal to the original (4 ml), the contents of all tubes were pooled, and a sample was taken for BCA protein assay . The material was aliquotted, 45 ml per round-bottom tube, and the resuspension was recentrifuged. The yield of protein was approximately 20 mg/brain, so there was about 40 mg of protein per tube.
7 . Pellets were frozen at −80° C.
II. H1 Histamine receptor binding assay:
1. FDCL and comparative compounds for assay were independently solubilized at 1 mg/ml DMSO by vortexing, or if necessary by sonication. The first dilution, 100-fold, was made in 50 mM Tris-HCl, pH 7.5, at room temperature. The three or four subsequent ten-fold serial dilutions were made in 1% DMSO/50 mM Tris-HCl, pH 7.5. Drug solutions and assay plates were kept at room temperature during the course of the assay set up.
2. Test compounds were assayed at four or five concentrations: 1, 0.1, 0.01, 0.001, and 0.0001 μg/ml. Twenty μl of drug solution was pipeted into each of three wells.
3. [^3H]Pyrilamine was diluted approximately 2000-fold with ice-cold […] Tris-HCl, pH 7.5 (to a working concentration of 20-25 nM), and put on ice.
4. A frozen tissue pellet was thawed in a 25° C. water bath, resuspended in 50 mM Tris-HCl, pH 7.5, at 1.7-2 mg/ml by brief break-up on the Polytron, and put on ice.
5. Twenty μl of diluted [^3H]pyrilamine was added to each well.
6. One hundred fifty μl of tissue suspension was added to each well.
7. The top of the plate was covered and it was placed in a 25° C. shaking water bath (about 60 oscillations/min) for 30 min..
8. Samples were filtered on a Tomtec Mach 2 harvester (available from Tomtec Corporation, Orange, Conn.) through a GF/B filter mat (from Wallac, Inc., Gaithersburg, Md.) presoaked in 0.3% polyethylenimine. Each sample was thrice washed with ice-cold 50 mM Tris-HCl, pH 7.5 dried 20 sec on the Tomtec, and dried 3-4 min in a microwave oven on a paper towel. The filter was impregnated with MELTILEX brand wax scintillant (from Wallac Corporation) and counted on a Betaplate scintillation counter (from Wallac Corporation).
9. Specific binding was determined as the difference between total and nonspecific binding. […]

T2 sequence (P31390 whole entry): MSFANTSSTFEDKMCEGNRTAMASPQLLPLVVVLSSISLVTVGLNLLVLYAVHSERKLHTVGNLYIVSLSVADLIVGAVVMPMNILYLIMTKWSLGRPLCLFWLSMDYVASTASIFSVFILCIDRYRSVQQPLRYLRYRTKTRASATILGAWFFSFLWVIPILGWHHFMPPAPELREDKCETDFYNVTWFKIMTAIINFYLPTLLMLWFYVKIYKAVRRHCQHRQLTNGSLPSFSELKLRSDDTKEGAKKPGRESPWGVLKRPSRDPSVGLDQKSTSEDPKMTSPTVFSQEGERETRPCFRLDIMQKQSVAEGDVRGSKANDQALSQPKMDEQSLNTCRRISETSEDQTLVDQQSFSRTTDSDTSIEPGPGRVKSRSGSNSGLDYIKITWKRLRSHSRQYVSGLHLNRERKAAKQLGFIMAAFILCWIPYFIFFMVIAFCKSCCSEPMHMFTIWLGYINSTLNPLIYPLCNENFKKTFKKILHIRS
T1 sequence (Q9JI35 whole entry): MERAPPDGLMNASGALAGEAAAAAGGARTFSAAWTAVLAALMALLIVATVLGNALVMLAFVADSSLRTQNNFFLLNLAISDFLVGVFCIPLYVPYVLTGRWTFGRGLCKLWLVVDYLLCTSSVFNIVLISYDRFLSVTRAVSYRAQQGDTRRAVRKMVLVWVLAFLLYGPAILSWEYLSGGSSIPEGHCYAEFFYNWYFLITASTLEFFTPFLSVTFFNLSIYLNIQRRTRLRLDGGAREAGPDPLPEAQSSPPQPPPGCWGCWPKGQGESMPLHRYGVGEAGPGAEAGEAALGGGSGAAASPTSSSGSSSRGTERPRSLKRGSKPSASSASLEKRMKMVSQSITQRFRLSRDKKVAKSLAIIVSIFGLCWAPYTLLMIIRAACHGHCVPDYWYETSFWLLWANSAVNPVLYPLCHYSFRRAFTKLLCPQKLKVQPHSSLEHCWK

Row | Structure (SMILES) | Ki [1] [nM] | Ki [2] [nM]
1 | Clc1ccc2c(c1)CCc1cccnc1C2CCN(CCCCc1c[nH]cn1)CCCCc1c[nH]cn1 (centres unmarked) | 9 | –
2 | Clc1ccc2c(c1)CCc1cccnc1C2CCNCCCCCc1c[nH]cn1 (centres unmarked) | 7 | –
3 | Clc1ccc2c(c1)CCc1cccnc1C2CCN(CCCc1c[nH]cn1)CCCc1c[nH]cn1 (centres unmarked) | 25 | 571
4 | Clc1ccc2c(c1)CCc1cccnc1C2CCNCCCc1c[nH]cn1 (centres unmarked) | 37 | 40
5 | Clc1ccc2c(c1)CCc1cccnc1C2CCNCCCCc1c[nH]cn1 (centres unmarked) | 7.5 | –
6 | Clc1ccc2c(c1)CCc1cccnc1C2CCN(CCCCCc1c[nH]cn1)CCCCCc1cnc[nH]1 (centres unmarked) | 26 | –

Second part, the molecule after the results:

Row | Ki [1] [nM] | Ki [2] [nM] | Structure (SMILES)
7 | 29 | 41 | Clc1ccc2c(c1)CCc1cccnc1C2NCCCCc1c[nH]cn1 (centres unmarked)
8 | 7.5 | 502 | Clc1ccc2c(c1)CCc1cccnc1C2NCCCCCc1c[nH]cn1 (centres unmarked)
9 | 70 | 144 | Clc1ccc2c(c1)CCc1cccnc1C2NCCc1c[nH]cn1 (centres unmarked)
